This note sets out measurements from PubChem BioAssay AID434951 (Broad Institute, 2010).

Activity calls are given as the source filed them.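 Rule for the calls: active = a fitted half-maximal concentration EC50 for the rise in nuclear signal no higher than ten times the top dose tested; inconclusive = flat fit with activity between 30% and 70%, or unusable fit; inactive = EC50 beyond ten times the top dose.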 Bounds are passed on as bounds.

Hypoxia-inducible factor 1-alpha (Homo sapiens), sequence (Q16665 whole entry, looked up): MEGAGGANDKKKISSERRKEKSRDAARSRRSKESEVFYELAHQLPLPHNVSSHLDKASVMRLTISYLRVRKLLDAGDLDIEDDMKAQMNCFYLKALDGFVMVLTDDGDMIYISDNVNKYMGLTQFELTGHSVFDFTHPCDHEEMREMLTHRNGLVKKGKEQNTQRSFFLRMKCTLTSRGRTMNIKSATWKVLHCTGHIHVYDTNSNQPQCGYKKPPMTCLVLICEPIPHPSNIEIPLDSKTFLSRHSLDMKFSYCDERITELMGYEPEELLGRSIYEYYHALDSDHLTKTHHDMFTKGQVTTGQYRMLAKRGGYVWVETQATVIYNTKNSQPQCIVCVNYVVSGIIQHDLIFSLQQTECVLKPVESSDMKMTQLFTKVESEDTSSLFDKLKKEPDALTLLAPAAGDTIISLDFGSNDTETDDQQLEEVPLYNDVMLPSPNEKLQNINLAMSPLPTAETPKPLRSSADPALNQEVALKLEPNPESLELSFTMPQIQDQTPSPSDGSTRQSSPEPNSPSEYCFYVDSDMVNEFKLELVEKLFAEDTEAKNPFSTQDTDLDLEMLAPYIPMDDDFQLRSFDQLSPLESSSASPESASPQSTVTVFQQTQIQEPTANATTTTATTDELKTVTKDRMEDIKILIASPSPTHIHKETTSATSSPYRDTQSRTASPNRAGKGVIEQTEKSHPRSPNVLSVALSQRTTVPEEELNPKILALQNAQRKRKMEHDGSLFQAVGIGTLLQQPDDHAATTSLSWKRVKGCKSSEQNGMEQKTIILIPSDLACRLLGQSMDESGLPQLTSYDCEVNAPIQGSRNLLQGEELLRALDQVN

The test has as its target Hypoxia-inducible factor 1-alpha (Homo sapiens) (UniProt Q16665). As to the kind of experiment: activators of HIF1alpha nuclear accumulation, confirmation, imaging, fluorescence, U2OS GFP-HIF1alpha (AID 434951). Conditions: U2OS GFP-HIF1alpha nuclear intensity, high-content imaging.
Regarding `Nc1nc2nc(-c3cccs3)cc(C(F)(F)F)n2n1`, the EC50 was > 35 µM (inactive).

As to `COc1ccc(C(=O)Nc2ccc(C(=O)NCCc3ccc(OC)c(OC)c3)cc2)cc1`, the EC50 was > 35 µM (inactive).

Turning to `CCOc1ccc(NC(=O)COc2ccccc2)c([N+](=O)[O-])c1`, the EC50 was > 35 µM (inactive).

Consider `CCCOC(=O)NC1C(NC(=O)OCCC)N(C)C(=O)N1C` (centres undefined), for which the EC50 was > 35 µM (inactive).

For `COc1ccc(NC(=O)CNC(=O)Cc2cccc3ccccc23)c(OC)c1`, the EC50 is > 35 µM (inactive).

For `O=C(N/N=C/c1cc(Br)ccc1O)C(=O)Nc1ccccc1OC(F)(F)C(F)F`, the EC50 was 35.2 µM.

On to `COc1cccc(/C=N/NC(=O)CNC(=O)C(c2ccccc2)c2ccccc2)c1O`, for which the EC50 is > 35 µM (inactive).

Consider `COc1cccc(C(=O)N/N=C(/c2ccccc2)c2ccccn2)c1`, for which the concentration for a half-maximal effect (EC50) was 6.04 µM.

In the case of `Cc1cccc(NC(=O)C2CC(=O)NC(Nc3nc4ccccc4s3)=N2)c1` (centres undefined), the EC50 was > 35 µM (inactive).

Regarding `Cc1cc(SCC(=O)N/N=C/c2ccccc2C(=O)O)c(C)cc1Br`, the EC50 was > 35 µM (inactive).

For the molecule `COc1ccccc1NC(=O)C1CCN(C(=O)c2ccc(C(C)(C)C)cc2)CC1`, the EC50 is > 35 µM (inactive).

On to `C=CCOc1ccc(/C=C2\SC(N)=NC2=O)cc1OC`, for which the EC50 is > 35 µM (inactive).

Regarding `COc1ccc(C(=O)CSc2nncn2C)cc1`, the EC50 is > 35 µM (inactive).

As to `C=CCNC(=S)N/N=C(\C)c1ccccn1`, the EC50 is 6.53 µM.

For `COC(=O)c1cc(S(=O)(=O)NCc2ccccc2OC)cn1C`, the EC50 is > 35 µM (inactive).

For the molecule `CCOC(=O)CN(C(=O)COc1nc(C)cc(C)c1C#N)c1cccc(Cl)c1`, the EC50 was > 35 µM (inactive).

`O=C(c1ccc(OC2CCN(CCc3ccccc3)CC2)cc1)N1CCCC(CCCO)C1` (centres undefined): the EC50 was > 35 µM (inactive).

`CCCCC(=O)NC(c1ccccc1)c1ccc2cccnc2c1O` (centres undefined): the EC50 is 17.4 µM.

In the case of `COc1ccc(CC(NC(C)=O)C(=O)NC2CCN(C(=O)Nc3ccc(Cl)cc3)CC2)cc1OC` (centres undefined), the EC50 is > 35 µM (inactive).

On to `COc1ccc(-n2c(C)cc(C(=O)CCl)c2C)cc1`, for which the EC50 is 12.4 µM.

Take `Brc1ccc(N/N=C(/N=Nc2nn[nH]n2)c2ccccc2)cc1`: the EC50 is 5.73 µM.

On to `CCn1nc(NS(=O)(=O)c2ccc(NC(C)=O)cc2)c2cc3cccc(C)c3nc21`, for which the EC50 was > 35 µM (inactive).

With `COc1ccc(N2CCN(C(=O)CN(C)S(=O)(=O)c3cc(C)ccc3OC)CC2)cc1`, the EC50 was > 35 µM (inactive).

For the molecule `CCN(CC)CCOC(=O)C(Cc1ccco1)Cc1cccc2ccccc12` (centres undefined), the EC50 was > 35 µM (inactive).

Regarding `CCNc1nc(Cl)nc(NNC(=O)C(C)Oc2ccccc2)n1` (centres undefined), the EC50 is > 35 µM (inactive).

Regarding `CC(C(=O)N1CCOCC1)N1c2cccc3cccc(c23)S1(=O)=O` (centres undefined), the EC50 is > 35 µM (inactive).

For `CCOP(=O)(C#CC(C)(C)C)C1(O)CCCCC1` (centres undefined), the EC50 was > 35 µM (inactive).

With `COc1ccc(NC(=O)CSc2ncnc3[nH]ncc23)cc1`, the EC50 is > 35 µM (inactive).

For `Cc1nn(C(=O)c2cccnc2)c(C)c1Sc1ccccc1`, the EC50 is > 35 µM (inactive).

Take `Cn1nnnc1N=N/C(=N/Nc1ccccc1)c1ccccc1`: the EC50 was 7.53 µM.

As to `Cc1cc(C)cc(NC(=O)c2cccc(NC(=O)c3ccco3)c2)c1`, the EC50 is > 35 µM (inactive).

As to `Cc1ccccc1OCC(=O)Nc1ccc(N2CCN(C)CC2)c(Cl)c1`, the EC50 was > 35 µM (inactive).

On to `COc1ccccc1N1CCN(CCCNC(=O)C2CCCN(c3ncnc4c3nc3n4CCCCC3)C2)CC1` (centres undefined), for which the EC50 is > 35 µM (inactive).

Consider `Cc1ccc(S(=O)(=O)N(C)CC(=O)NCCCn2ccnc2)cc1`, for which the EC50 was > 35 µM (inactive).

Regarding `CCCCC(=O)NC(c1ccc(N(C)C)cc1)c1ccc2cccnc2c1O` (centres undefined), the 50% effective concentration (EC50) was 3.09 µM.

Regarding `Cc1onc(-c2ccccc2)c1NC(=O)N(Cc1ccccc1)C(C)C`, the EC50 is > 35 µM (inactive).

Take `Cc1cc(C)c(C(=O)N2CCCC(N3CCN(c4cccc(C(F)(F)F)c4)CC3)C2)o1` (centres undefined): the EC50 is > 35 µM (inactive).

For the molecule `COc1cc2c(cc1OC)C(C)N(S(=O)(=O)c1ccc(Cl)nc1)CC2` (centres undefined), the EC50 was > 35 µM (inactive).

On to `COc1cccc(NC(=S)N(CCCN2CCOCC2)Cc2cn(C)c3ccccc23)c1`, for which the EC50 was > 35 µM (inactive).

`Cc1cc(C)c2sc(NNC(=O)c3ccc(S(=O)(=O)N4CCc5ccccc5C4)cc3)nc2c1`: the EC50 was 10.5 µM.

On to `COc1ccc(/C=N/NC(=O)c2ccccc2O)cc1CSc1ccccn1`, for which the EC50 is > 35 µM (inactive).

As for `COc1ccc(N/N=C/c2c(C(=O)O)ccc3ccccc23)cc1`, the EC50 is 6.81 µM.

On to `Cn1c(SCC(=O)Nc2ccccc2)nnc1-c1ccc(NC(=O)CCc2ccccc2)cc1`, for which the EC50 is > 35 µM (inactive).

Take `Cc1cc(C)n(-c2nc3ccccc3c(=O)n2OCC#N)n1`: the EC50 is 11.4 µM.

Turning to `COCCn1c(=NC(=O)c2ccc(S(=O)(=O)N3CCCc4ccccc43)cc2)sc2cc(S(C)(=O)=O)ccc21`, the EC50 is > 35 µM (inactive).

Regarding `COc1ccc(C(=O)Nc2ccccc2C(=O)N/N=C/c2ccccn2)cc1OC`, the EC50 is 10.6 µM.

For the molecule `CC(C)NC(=S)NN=C1c2ccccc2-c2ccccc21`, the EC50 is > 35 µM (inactive).

As to `COc1cc2ccccc2cc1C(=O)NNC(=O)c1ccccc1O`, the EC50 was > 35 µM (inactive).

On to `Cc1c(Cl)cccc1NC(=S)N/N=C/c1ccccc1Cl`, for which the EC50 is 14.8 µM.

With `Cc1ccccc1Nc1c(-c2ccccn2)nc2ccccn12`, the EC50 was 8.61 µM.

`CC(C)C(=O)NC(c1cccc([N+](=O)[O-])c1)c1ccc2cccnc2c1O` (centres undefined): the EC50 is 2.3 µM.

On to `COc1cc(C(=O)N/N=C(\c2ccccc2)c2ccccn2)cc(OC)c1OC`, for which the EC50 is 11.3 µM.

For `CCOc1ccccc1NC(=O)CSc1ncnc2c1oc1ccccc12`, the EC50 was > 35 µM (inactive).

As for `CC(C)NC(=O)NC(=O)CSc1nnc(-c2ccccc2F)n1N`, the EC50 is > 35 µM (inactive).

With `COc1ccc(Cl)c(OC)c1C(=O)NC(=O)Nc1c(F)cc(F)cc1F`, the EC50 is > 35 µM (inactive).

Regarding `C1CC1Cc1noc(CN2CCN(CC3CC3)CC2)n1`, the EC50 was > 35 µM (inactive).

Take `Cc1cc(C)c2c(N)c3ccccc3nc2n1`: the EC50 was 17.4 µM.

For the molecule `COc1ccc(C(NC(C)=O)c2ccc3cccnc3c2O)c(OC)c1` (centres undefined), the EC50 is 10.9 µM.

Turning to `c1ccc(CSc2nnc(-c3ccco3)o2)cc1`, the EC50 is > 35 µM (inactive).

With `Cc1ccc(S(=O)(=O)N2CC(C)N(C(=O)N3CCOCC3)C2C)cc1` (centres undefined), the EC50 was > 35 µM (inactive).

Regarding `O=C1CCCC2=C1C(Cc1ccccc1)C1=C(CCCC1=O)O2`, the EC50 was > 35 µM (inactive).

Turning to `Cc1ccc(NC2CCCN(C(=O)C3CCCCC3)C2)cc1C` (centres undefined), the EC50 was > 35 µM (inactive).

In the case of `COc1ccc(C(=O)N2CCCCCC2)cc1S(=O)(=O)N1CCOCC1`, the EC50 is > 35 µM (inactive).

For the molecule `Cc1ccc(C)c(-n2nnnc2Sc2nnnn2-c2ccccc2)c1`, the EC50 is > 35 µM (inactive).

With `CC(C)Cn1c(/C=N/Nc2nc3ccccc3[nH]2)nc2ccccc21`, the 50% effective concentration (EC50) is 9.05 µM.

In the case of `CN(CCS(=O)(=O)c1ccc(Cl)cc1)Cc1cccnc1`, the EC50 is > 35 µM (inactive).

Turning to `CCCCOc1ccc(C(=O)NCC(=O)OC2CCOC2=O)cc1` (centres undefined), the EC50 was 34.7 µM.

For `Cn1nc(C(=O)NCCCN2CCCCC2)c2c1-c1ccccc1S(=O)(=O)C2`, the EC50 was > 35 µM (inactive).

As to `Oc1ccc(N=Nc2ccc3c(c2)OCCO3)c2cccnc12`, the EC50 was > 35 µM (inactive).

Regarding `Cc1ccc(C(=O)Nc2cccc([N+](=O)[O-])c2)cc1S(=O)(=O)Nc1ccc(NC(=O)c2ccccc2)cc1`, the EC50 is > 35 µM (inactive).

In the case of `COc1ccccc1OCc1nnc(SCC(=O)NCc2ccco2)n1-c1ccccc1`, the EC50 is > 35 µM (inactive).

For `Cc1ccc(C)c(-c2cc(C(=O)Nc3cccc(C(=O)O)c3)c3ccccc3n2)c1`, the EC50 is > 35 µM (inactive).

On to `CC(=O)OCCCNc1cc(Sc2ccc(C)cc2)c2nonc2c1[N+](=O)[O-]`, for which the EC50 is > 35 µM (inactive).

As for `O=C(CCc1ccccc1)Nc1ccnn1C1CCN(C/C=C/c2ccccc2)CC1`, the EC50 was > 35 µM (inactive).

`COc1ccc(/C=N/NC(=S)Nc2cc(S(=O)(=O)N3CCOCC3)ccc2N2CCOCC2)cc1O`: the EC50 was > 35 µM (inactive).

Regarding `Cc1nnc(SCc2cccc(Cl)c2)n(N)c1=O`, the EC50 is > 35 µM (inactive).

In the case of `O=C(NC1=NCCS1)c1cccc(NC(=O)c2ccco2)c1`, the EC50 is > 35 µM (inactive).

`Cc1nc2cc(-c3ccccc3)sc2c(=O)n1N`: the EC50 is > 35 µM (inactive).

As to `O=C(N/N=C/c1cc(Br)cc(Cl)c1O)c1ccc2c(c1)OCO2`, the EC50 was > 35 µM (inactive).

`COc1ccccc1-c1cc(C(F)(F)F)nc(S(=O)(=O)CCCC(=O)N2CCOCC2)n1`: the EC50 was > 35 µM (inactive).

`Cc1ccc(Nc2c3c(nc4ccccc24)CCC3)cc1`: the EC50 was > 35 µM (inactive).

Consider `O=C1C(=O)c2ccccc2C(O)=C1c1cccc([N+](=O)[O-])c1`, for which the EC50 is > 35 µM (inactive).

For the molecule `COC(=O)CN1C(=O)[C@H]2[C@@H](c3ccc(C)o3)N3C(=O)CN(CC4CC4)C(=O)[C@@]3(Cc3ccccc3)[C@H]2C1=O`, the EC50 is > 35 µM (inactive).

`CCCC(=O)NC(c1cccs1)c1cc(Cl)c2cccnc2c1O` (centres undefined): the EC50 was 7.25 µM.

In the case of `COc1ccc(N2CCN(S(=O)(=O)c3cc(-c4cc(C)no4)ccc3C(C)C)CC2)cc1`, the EC50 was > 35 µM (inactive).

`COc1cccc(/C=N/Nc2nccnc2Cl)c1O`: the EC50 was 6.36 µM.

Consider `O=C(COc1cccc2ccccc12)Nc1ccc(Cl)cc1C(=O)O`, for which the EC50 was > 35 µM (inactive).

With `CCN(CC)S(=O)(=O)c1ccc(N2CCOCC2)c(NC(=O)c2cccc3ccccc23)c1`, the EC50 is > 35 µM (inactive).

With `Cc1ccnc(NS(=O)(=O)c2cc([N+](=O)[O-])ccc2C)c1`, the EC50 is > 35 µM (inactive).

One may read the EC50 as the concentration giving half of the maximal effect.
